Measured values reported in patent US10800754B2, “Heterocyclic amide compound” (TAKEDA PHARMACEUTICAL COMPANY LIMITED, priority 2016, dated 2020).

Each compound was assayed against T1, human PRS protein (Homo sapiens, UniProt P07814) (assay: PRS inhibitory activity (ATP/[32P]pyrophosphate exchange enzyme reaction)). Conditions: 300 nM test compound; recombinant human PRS (EPRS 998-1512); read-out: inhibitory rate (%) of PRS.
T1 construct: to construct His-Avi-hEPRS (998-1512) expression plasmid; His tag (N); Avi tag (N); TEV cleavage site (ENLYFQ/GS, encoded by forward primer hEPRS-TEV-NheF) (N); made in house; host or cells: E. coli BL21(DE3)
T1 sequence (P07814 998-1512): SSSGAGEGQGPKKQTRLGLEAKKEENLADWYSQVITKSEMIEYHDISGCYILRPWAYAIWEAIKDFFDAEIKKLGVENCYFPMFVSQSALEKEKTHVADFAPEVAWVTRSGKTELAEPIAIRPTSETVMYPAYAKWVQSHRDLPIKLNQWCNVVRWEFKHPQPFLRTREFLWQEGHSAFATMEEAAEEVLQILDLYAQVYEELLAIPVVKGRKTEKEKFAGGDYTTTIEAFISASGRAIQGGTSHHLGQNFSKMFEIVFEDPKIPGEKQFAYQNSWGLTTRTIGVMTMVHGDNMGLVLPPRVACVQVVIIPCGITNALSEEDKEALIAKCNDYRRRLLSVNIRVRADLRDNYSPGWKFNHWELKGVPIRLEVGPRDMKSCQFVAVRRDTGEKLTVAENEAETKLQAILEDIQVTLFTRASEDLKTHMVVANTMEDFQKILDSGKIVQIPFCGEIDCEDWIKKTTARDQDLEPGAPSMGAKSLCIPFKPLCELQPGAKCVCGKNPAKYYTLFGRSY
Assay type: biochemical
Description: The PRS inhibitory activity of the compounds of the present invention was evaluated by the following method.
An expression plasmid of Catalytic Domain of human EPRS was obtained by PCR using human skeletal muscle cDNA Library (Takara Bio Inc.) as a template and 2 kinds of Primers 5′-[…]-3′ (hEPRS-TEV-NheF) (SEQ ID NO: 1) and 5′-[…]-3′ (hEPRS-St-Not-R) (SEQ ID NO: 2). PCR was performed using PrimeStar GXL DNA Polymerase (Takara Bio Inc.) and included (1) 98° C., 1 min, (2) cycles of 98° C., 10 sec, 65° C., 10 sec, 72° C., 1 min, and (3) reaction at 72° C., 1 min. This was cleaved with Nhe I and Not I (Takara Bio Inc.) and inserted using Ligation High (TOYOBO CO., LTD.) into the Nhe I/Not I site of pET21a (Novagen) with His-Avitag inserted thereinto. This was introduced into ECOS JM109 (NIPPON GENE CO., LTD.) to construct His-Avi-hEPRS (998-1512) expression plasmid.
Recombinant human PRS protein was prepared by transforming the His-Avi-hEPRS (998-1512) expression plasmid prepared above into ECOS Competent E. coli BL21(DE3) (NIPPON GENE CO., LTD.). Escherichia coli obtained by transformation was inoculated into 300 mL of LB medium (1% peptone, 0.5% yeast extract, 0.5% sodium chloride, 0.01% ampicillin) and cultured at 30° C. for 16 hr. The obtained culture medium was transferred into a jar culture tank charged with 6 L of the main fermentation medium (0.3% potassium dihydrogen phosphate, 0.6% disodium hydrogen phosphate, 0.1% ammonium chloride, 0.05% sodium chloride, 0.024% magnesium sulfate, 0.02% NEWPOL LB-625, 1.5% sorbitol, 1.5% casamino acid, 0.5% yeast extract, 0.01% ampicillin) and culturing was started at 37° C., quantity of airflow 5 L/min, stirring rotating speed 400 rpm. At the time point when the turbidity of the culture medium reached about 550 Klett units, the culture temperature was lowered to 16° C., isopropyl-β-D-thiogalactopyranoside (IPTG) was added to the final concentration 0.1 mM, and culturing was performed for another 16 hr to induce expression of human PRS. After completion of culturing, the culture medium was centrifuged at 5,000 rpm for 10 min. The obtained human PRS expressing Escherichia coli was suspended in a buffer containing 50 mM Tris-HCl (pH 8.0), 150 mM NaCl, 1 mM DTT, 5 U/ml Benzonase, 20 mM Imidazole and sonicated using Sonifier (BRANSON). The homogenate was centrifuged (33,000×G, 60 min, Beckman Coulter), the obtained supernatant was subjected to adsorption by passage through Ni-NTA Superflow (QIAGEN) column equilibrated in advance with 50 mM Tris-HCl (pH 8.0), 300 mM NaCl, 1 mM DTT, and elution was performed with a buffer containing 50 mM Tris-HCl (pH 8.0), 300 mM NaCl, 1 mM DTT, 250 mM Imidazole. Furthermore, gel filtration was performed using […] equilibrated in advance with a buffer containing 50 mM Tris-HCl (pH 8.0), 150 mM NaCl, 1 mM DTT, 10% glycerol to give purified human PRS protein. The protein concentration was measured using BCA Protein Assay Kit (PIERCE) and BSA as the standard.
A test compound was dissolved in 5 μL of an assay buffer (50 mM Tris-HCl (pH 7.5), 20 mM KCl, 1 mM DTT, 0.01% Tween 20) and incubated for 60 min with 5 μL of 40 nM human PRS protein dissolved in the assay buffer containing 40 mM MgCl2. An enzyme reaction of the human PRS protein was started by adding 10 μL of a substrate solution containing 300 μM ATP, 160 μM L-Proline, 400 μM pyrophosphate, [^32P]pyrophosphate (PerkinElmer, Waltham, Mass.) prepared to 1 MBq/mL. After incubation at room temperature for 30 min, the reaction was discontinued by adding 50 μL of discontinuation/washing solution (1M HCl, 200 mM sodium pyrophosphate) to the reaction mixture. The reaction solution was transferred to a filter plate (Merck Millipore, Billerica, Mass.) previously added with 200 μL of charcoal solution (0.5% HCl solution containing 10% charcoal (w/v)). […]

First: N#C[C@@]1(C2CC2)CCN(c2ccnc(NC(=O)Cc3cccc(-c4cccnc4)c3)c2)C1=O [Example 34, N-(4-((3S)-3-cyano-3-cyclopropyl-2-oxopyrrolidin-1-yl)pyridin-2-yl)-2-(3-(pyridin-3-yl)phenyl)acetamide]
Second: N#C[C@@]1(C2CC2)CCN(c2ccnc(NC(=O)Cc3cccc(-c4cnn(CC(N)=O)c4)c3)c2)C1=O [Example 69, 2-(3-(1-(2-amino-2-oxoethyl)-1H-pyrazol-4-yl)phenyl)-N-(4-((3S)-3-cyano-3-cyclopropyl-2-oxopyrrolidin-1-yl)pyridin-2-yl)acetamide]
The inhibition at 0.3 µM of the first is lower: 97% for the first, 99% for the second.

`N#C[C@@]1(C2CC2)CCN(c2ccnc(NC(=O)Cc3ccccc3)c2)C1=O` [Example 2, N-(4-((3S)-3-cyano-3-cyclopropyl-2-oxopyrrolidin-1-yl)pyridin-2-yl)-2-phenylacetamide] and `Cc1cccc(CC(=O)Nc2cc(N3CC[C@@](C#N)(C4CC4)C3=O)ccn2)c1` [Example 11, N-(4-((3S)-3-cyano-3-cyclopropyl-2-oxopyrrolidin-1-yl)pyridin-2-yl)-2-(3-methylphenyl)acetamide] are the same in inhibition at 0.3 µM: 85% for the first, 85% for the second.

Going from `N#C[C@@]1(C2CC2)CCN(c2ccnc(NC(=O)Cc3cccc4ccccc34)c2)C1=O` [Example 3, N-(4-((3S)-3-cyano-3-cyclopropyl-2-oxopyrrolidin-1-yl)pyridin-2-yl)-2-(1-naphthyl)acetamide] to `N#CC1(C2CCC2)CCN(c2ccnc(NC(=O)Cc3cccc4ccccc34)c2)C1=O` (centres unmarked) [Example 33, N-(4-(3-cyano-3-cyclobutyl-2-oxopyrrolidin-1-yl)pyridin-2-yl)-2-(1-naphthyl)acetamide], the inhibition at 0.3 µM falls from 93% to 80%.

Going from `N#C[C@@]1(C2CC2)CCN(c2ccnc(NC(=O)Cc3ccccc3Cl)c2)C1=O` [Example 5, 2-(2-chlorophenyl)-N-(4-((3S)-3-cyano-3-cyclopropyl-2-oxopyrrolidin-1-yl)pyridin-2-yl)acetamide] to `N#C[C@@]1(C2CC2)CCN(c2ccnc(NC(=O)Cc3csc4ccccc34)c2)C1=O` [Example 28, 2-(1-benzothiophen-3-yl)-N-(4-((3S)-3-cyano-3-cyclopropyl-2-oxopyrrolidin-1-yl)pyridin-2-yl)acetamide], the inhibition at 0.3 µM rises from 62% to 94%.

Compared with `Cn1cc(-c2cccc(CC(=O)Nc3cc(N4CC[C@@](C#N)(C5CC5)C4=O)cc(C(F)(F)F)n3)c2)cn1` [Example 61, N-(4-((3S)-3-cyano-3-cyclopropyl-2-oxopyrrolidin-1-yl)-6-(trifluoromethyl)-pyridin-2-yl)-2-(3-(1-methyl-1H-pyrazol-4-yl)phenyl)acetamide], `N#C[C@@]1(C2CC2)CCN(c2ccnc(NC(=O)Cc3cccc(-c4cnn(CCn5cccn5)c4)c3)c2)C1=O` [Example 80, N-(4-((3S)-3-cyano-3-cyclopropyl-2-oxopyrrolidin-1-yl)pyridin-2-yl)-2-(3-(1-(2-(1H-pyrazol-1-yl)ethyl)-1H-pyrazol-4-yl)phenyl)acetamide] is higher in inhibition at 0.3 µM: 84% for the first, 98% for the second.

Going from `C=CC[C@]1(C#N)CCN(c2ccnc(NC(=O)Cc3cccc(-c4ccsc4)c3)c2)C1=O` [Example 24, N-(4-((3R)-3-allyl-3-cyano-2-oxopyrrolidin-1-yl)pyridin-2-yl)-2-(3-(3-thienyl)phenyl)acetamide] to `C=CC[C@]1(C#N)CCN(c2ccnc(NC(=O)Cc3cccc(-c4cnn(C)c4)c3)c2)C1=O` [Example 22, N-(4-((3R)-3-allyl-3-cyano-2-oxopyrrolidin-1-yl)pyridin-2-yl)-2-(3-(1-methyl-1H-pyrazol-4-yl)phenyl)acetamide], the inhibition at 0.3 µM rises from 71% to 87%.

Going from `N#C[C@@]1(C2CC2)CCN(c2ccnc(NC(=O)Cc3ccc(Cl)s3)c2)C1=O` [Example 17, 2-(5-chloro-2-thienyl)-N-(4-((3S)-3-cyano-3-cyclopropyl-2-oxopyrrolidin-1-yl)pyridin-2-yl)acetamide] to `N#Cc1ccc(-c2cccc(CC(=O)Nc3cc(N4CC[C@@](C#N)(C5CC5)C4=O)ccn3)c2)s1` [Example 36, N-(4-((3S)-3-cyano-3-cyclopropyl-2-oxopyrrolidin-1-yl)pyridin-2-yl)-2-(3-(5-cyano-2-thienyl)phenyl)acetamide], the inhibition at 0.3 µM rises from 83% to 96%.

Compared with `N#C[C@@]1(C2CC2)CCN(c2cc(NC(=O)Cc3cccc(Cl)c3)ncn2)C1=O` [Example 126, 2-(3-chlorophenyl)-N-(6-((3S)-3-cyano-3-cyclopropyl-2-oxopyrrolidin-1-yl)pyrimidin-4-yl)acetamide], `N#C[C@@]1(C2CC2)CCN(c2cc(NC(=O)Cc3ccccc3)ncn2)C1=O` [Example 127, N-(6-((3S)-3-cyano-3-cyclopropyl-2-oxopyrrolidin-1-yl)pyrimidin-4-yl)-2-phenylacetamide] is higher in inhibition at 0.3 µM: 57% for the first, 65% for the second.

Compared with `N#C[C@@]1(C2CC2)CCN(c2ccnc(NC(=O)Cc3cccc(-c4cnn(CC5CCCCC5)c4)c3)c2)C1=O` [Example 82, N-(4-((3S)-3-cyano-3-cyclopropyl-2-oxopyrrolidin-1-yl)pyridin-2-yl)-2-(3-(1-(cyclohexylmethyl)-1H-pyrazol-4-yl)phenyl)acetamide], `N#C[C@@]1(C2CC2)CCN(c2ccnc(NC(=O)Cc3cccc(-c4cnn(CCc5ccccc5)c4)c3)c2)C1=O` [Example 88, N-(4-((3S)-3-cyano-3-cyclopropyl-2-oxopyrrolidin-1-yl)pyridin-2-yl)-2-(3-(1-(2-phenylethyl)-1H-pyrazol-4-yl)phenyl)acetamide] is higher in inhibition at 0.3 µM: 92% for the first, 97% for the second.

Going from `N#C[C@@]1(C2CC2)CCN(c2ccnc(NC(=O)Cc3cccc(Cl)c3)n2)C1=O` [Example 129, 2-(3-chlorophenyl)-N-(4-((3S)-3-cyano-3-cyclopropyl-2-oxopyrrolidin-1-yl)pyrimidin-2-yl)acetamide] to `Cn1cc(-c2cccc(CC(=O)Nc3cc(N4CCC(C)(C)C4=O)ccn3)c2)cn1` [Example 43, N-(4-(3,3-dimethyl-2-oxopyrrolidin-1-yl)pyridin-2-yl)-2-(3-(1-methyl-1H-pyrazol-4-yl)phenyl)acetamide], the inhibition at 0.3 µM rises from 87% to 88%.
